Patent US6211203A, “Benzofuran-4-carboxamides” (Byk Gulden Lomberg Chemische Fabrik GmbH, priority 1996, dated 2001)

test system: PDE IV; experiment: Inhibition of PDE IV activity; assay type: biochemical; details: Inhibition of PDE IV activity (Table A)

-log IC50 | SMILES
9.72 | CC(C)c1cc2c(C(=O)Nc3c(Cl)cncc3Cl)ccc(OC(F)F)c2o1 [Compound 4, N-(3,5-Dichloropyrid-4-yl)-7-difluoromethoxy-2-(1-methylethyl)benzofuran-4-carboxamide]
8.80 | COc1ccc(C(=O)Nc2c(Cl)cncc2Cl)c2cc(C3CCCC3)oc12 [Compound 5, N-(3,5-Dichloropyrid-4-yl)-2-cyclopentyl-7-methoxybenzofuran-4-carboxamide]

The remaining lines, values behind:

SMILES | -log IC50
COc1ccc(C(=O)Nc2c(Cl)cncc2Cl)c2cc(C(C)C)oc12 [Compound 3, N-(3,5-Dichloropyrid-4-yl)-7-methoxy-2-(1-methylethyl)benzofuran-4-carboxamide] | 8.18
COc1ccc(C(=O)Nc2c(Cl)cncc2Cl)c2cc(C(C)C)oc12 [Compound 2, N-(3,5-Dichloropyrid-4-yl)-7-methoxy-2-(1-methylethyl)benzofuran-4-carboxamide] | 9.28
COc1ccc(C(=O)Nc2c(Cl)cncc2Cl)c2cc(C)oc12 [Compound 1, N-(3,5-Dichloropyrid-4-yl)-7-methoxy-2-methylbenzofuran-4-carboxamide] | 8.42
